For this assay, the target named is rhodopsin (N2C,D282C and N2C,E113Q,D282C mutants) (Bos taurus, UniProt P02699, N2C/E113Q/D282C). The experiment in a line: UV-visible absorption. Format: binding. As to conditions: covalent; in the dark; inverse agonist chromophore; DDM, Hepes pH 7.5.

The record followed here is PMC3390202 (Biochemistry, 2011).

`CC1=C(/C=C/C(C)=C/C=C\C(C)=C\C=O)C(C)(C)CCC1` [11-cis-retinal]: the “UV-visible absorption; 1D4-Sepharose copurification with transducin” value was “Binding of 11-cis-retinal forces the protein into the inactive state”.
